One may read the melting point as the temperature of the solid-liquid transition. Regarding `Cc1ccnc(C(=O)c2[nH]c3ccc(Cl)cc3c2CC(=O)NCCN)c1` [Example 272, [5-Chloro-2-(4-methylpyridine-2-carbonyl)-1H-indol-3-yl]-N-(2-aminoethyl)acetamide], the melting point amounted to 165.7 °C. In the case of `CCOC(=O)C=Cc1ccc(Cl)cc1NS(=O)(=O)c1ccc(C)cc1` [Example 293, 3-[4-Chloro-2-(toluene-4-sulfonylamino)-phenyl]-acrylic Acid Ethyl Ester] it was 124 to 127 °C; in that of `CCOC(=O)C=Cc1ccc(Cl)cc1N(CC(=O)c1ccc(Cl)cc1)S(=O)(=O)c1ccc(C)cc1` [Example 295, 3-{4-Chloro-2-[[2-(4-chloro-phenyl)-2-oxo-ethyl]-(toluene-4-sulfonyl)-amino]-phenyl}-acrylic Acid Ethyl Ester], 162 to 165 °C. In the case of `CCOC(=O)Cc1c(C(=O)c2ccc(Cl)cc2)[nH]c2cc(Cl)ccc12` [Example 297, [6-Chloro-2-(4-chloro-benzoyl)-1H-indol-3-yl]-acetic Acid Ethyl Ester] it was 186 to 188 °C.
